What all share (assay type): biochemical
Test [1] addresses T1, PI3Kδ (Homo sapiens, UniProt O00329).
T1 construct: purchased Merck Millipore
Put plainly: In vitro PI3K inhibition assay (ADP-Glo kinase assay), PI3Kδ. Conditions: mean of two independent experiments. The procedure: (§1) All compounds were tested in a biochemical assay that measured the inhibition of phosphatidylinositol […] production by PI3K isoforms using the ADP-Glo kinase assay (Promega). In addition, the effects of synthesized compounds on B cell proliferation were measured.
(§2) The potency and selectivity of compounds were assessed by measuring the ability of PI3K kinases to convert ATP to ADP during an enzymatic reaction in the presence of decreasing doses of tested compounds. The experiments were carried out using the ADP-Glo kinase assay kit (Promega), according to the manufacturer’s protocol. PI3Kα, PI3Kβ, PI3Kδ, and PI3Kγ have been purchased from Merck Millipore and phosphoinositol-4,5-bisphosphate (PIP2) lipid vesicles with phosphoserine from ThermoFisher Scientific were used as a substrate in the enzymatic reaction.
(§3) After the reaction, the ADP-Glo reagent and the kinase detection reagent were added sequentially with 40 min of incubation (25 °C, 600 rpm) after adding each reagent. Finally, the luminescence intensity was measured and the IC50 was calculated using GraphPad Prism 7 software. The presented results are the mean value of IC50 from at least two independent experiments.
For orientation: ADP-Glo turns the ADP formed in a reaction into a luminescent signal.

Test [2] addresses T2, PI3Kγ (Homo sapiens, UniProt P48736).
T2 construct: purchased Merck Millipore
Put plainly: In vitro PI3K inhibition assay (ADP-Glo kinase assay), PI3Kγ. Conditions: for IC50: mean of two independent experiments; for Fold Selectivity γ/δ: ratio IC50 PI3Kγ / IC50 PI3Kδ. The procedure:
as §1, §2, §3

Test [3] has as its target T3, PI3Kβ (Homo sapiens, UniProt P42338).
T3 construct: purchased Merck Millipore
Put plainly: In vitro PI3K inhibition assay (ADP-Glo kinase assay), PI3Kβ. Conditions: for IC50: mean of two independent experiments; for Fold Selectivity β/δ: ratio IC50 PI3Kβ / IC50 PI3Kδ. The procedure: as §1, §2, §3

For test [4], the target named is T4, PI3Kα (Homo sapiens, UniProt P42336).
T4 construct: purchased Merck Millipore (methods text)
T4 sequence (P42336 whole entry): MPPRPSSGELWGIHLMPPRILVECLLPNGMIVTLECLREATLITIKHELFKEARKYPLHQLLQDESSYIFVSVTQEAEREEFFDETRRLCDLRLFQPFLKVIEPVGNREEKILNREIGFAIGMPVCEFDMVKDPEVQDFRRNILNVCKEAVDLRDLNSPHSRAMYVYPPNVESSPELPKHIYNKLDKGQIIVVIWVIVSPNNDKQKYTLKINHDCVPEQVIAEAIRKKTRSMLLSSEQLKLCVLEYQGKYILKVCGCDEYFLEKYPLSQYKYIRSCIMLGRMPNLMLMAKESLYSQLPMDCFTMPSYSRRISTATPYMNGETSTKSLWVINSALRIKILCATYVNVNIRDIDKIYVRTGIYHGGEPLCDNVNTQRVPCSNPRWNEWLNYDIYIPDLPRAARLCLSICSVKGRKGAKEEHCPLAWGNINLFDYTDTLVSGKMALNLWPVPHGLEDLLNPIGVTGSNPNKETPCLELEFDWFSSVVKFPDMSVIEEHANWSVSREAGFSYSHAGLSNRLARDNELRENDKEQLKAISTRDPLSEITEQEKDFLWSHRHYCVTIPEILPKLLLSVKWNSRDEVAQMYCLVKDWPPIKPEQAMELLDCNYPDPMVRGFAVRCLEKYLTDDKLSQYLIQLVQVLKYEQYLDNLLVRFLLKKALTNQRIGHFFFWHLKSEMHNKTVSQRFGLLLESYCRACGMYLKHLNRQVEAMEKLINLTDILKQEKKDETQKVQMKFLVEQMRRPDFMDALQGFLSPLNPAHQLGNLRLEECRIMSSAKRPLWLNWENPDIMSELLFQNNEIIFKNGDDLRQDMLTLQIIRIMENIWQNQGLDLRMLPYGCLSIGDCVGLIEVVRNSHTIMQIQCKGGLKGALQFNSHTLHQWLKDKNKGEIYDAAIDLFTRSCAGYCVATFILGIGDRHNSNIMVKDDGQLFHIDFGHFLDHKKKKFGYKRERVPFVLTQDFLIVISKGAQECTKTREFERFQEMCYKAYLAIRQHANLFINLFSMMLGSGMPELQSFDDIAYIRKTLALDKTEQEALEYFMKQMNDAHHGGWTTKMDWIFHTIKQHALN
T4 sequence (P27986 whole entry partner): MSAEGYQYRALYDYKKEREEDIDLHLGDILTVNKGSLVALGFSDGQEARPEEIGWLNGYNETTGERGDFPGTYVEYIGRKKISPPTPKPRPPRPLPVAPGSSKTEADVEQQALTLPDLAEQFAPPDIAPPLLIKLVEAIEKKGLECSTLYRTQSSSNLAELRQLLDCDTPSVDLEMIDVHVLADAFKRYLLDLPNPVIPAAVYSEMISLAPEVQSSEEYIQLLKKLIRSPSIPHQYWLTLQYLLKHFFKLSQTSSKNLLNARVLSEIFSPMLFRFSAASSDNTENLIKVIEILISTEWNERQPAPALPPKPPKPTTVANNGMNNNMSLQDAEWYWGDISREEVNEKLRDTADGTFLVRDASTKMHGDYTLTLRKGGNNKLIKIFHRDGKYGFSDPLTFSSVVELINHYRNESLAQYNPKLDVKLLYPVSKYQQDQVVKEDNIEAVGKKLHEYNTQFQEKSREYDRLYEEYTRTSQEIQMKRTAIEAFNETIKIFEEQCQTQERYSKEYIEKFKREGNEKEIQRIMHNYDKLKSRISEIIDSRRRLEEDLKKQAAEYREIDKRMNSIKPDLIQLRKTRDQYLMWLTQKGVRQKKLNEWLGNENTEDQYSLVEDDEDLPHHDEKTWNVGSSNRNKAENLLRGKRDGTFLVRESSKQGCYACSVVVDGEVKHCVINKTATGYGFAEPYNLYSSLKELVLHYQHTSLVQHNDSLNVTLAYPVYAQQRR
Put plainly: In vitro PI3K inhibition assay (ADP-Glo kinase assay), PI3Kα. Conditions: for Fold Selectivity α/δ: ratio IC50 PI3Kα / IC50 PI3Kδ. The procedure: as §1, §2, §3

Structures are written as SMILES.

T2 sequence (P48736 whole entry): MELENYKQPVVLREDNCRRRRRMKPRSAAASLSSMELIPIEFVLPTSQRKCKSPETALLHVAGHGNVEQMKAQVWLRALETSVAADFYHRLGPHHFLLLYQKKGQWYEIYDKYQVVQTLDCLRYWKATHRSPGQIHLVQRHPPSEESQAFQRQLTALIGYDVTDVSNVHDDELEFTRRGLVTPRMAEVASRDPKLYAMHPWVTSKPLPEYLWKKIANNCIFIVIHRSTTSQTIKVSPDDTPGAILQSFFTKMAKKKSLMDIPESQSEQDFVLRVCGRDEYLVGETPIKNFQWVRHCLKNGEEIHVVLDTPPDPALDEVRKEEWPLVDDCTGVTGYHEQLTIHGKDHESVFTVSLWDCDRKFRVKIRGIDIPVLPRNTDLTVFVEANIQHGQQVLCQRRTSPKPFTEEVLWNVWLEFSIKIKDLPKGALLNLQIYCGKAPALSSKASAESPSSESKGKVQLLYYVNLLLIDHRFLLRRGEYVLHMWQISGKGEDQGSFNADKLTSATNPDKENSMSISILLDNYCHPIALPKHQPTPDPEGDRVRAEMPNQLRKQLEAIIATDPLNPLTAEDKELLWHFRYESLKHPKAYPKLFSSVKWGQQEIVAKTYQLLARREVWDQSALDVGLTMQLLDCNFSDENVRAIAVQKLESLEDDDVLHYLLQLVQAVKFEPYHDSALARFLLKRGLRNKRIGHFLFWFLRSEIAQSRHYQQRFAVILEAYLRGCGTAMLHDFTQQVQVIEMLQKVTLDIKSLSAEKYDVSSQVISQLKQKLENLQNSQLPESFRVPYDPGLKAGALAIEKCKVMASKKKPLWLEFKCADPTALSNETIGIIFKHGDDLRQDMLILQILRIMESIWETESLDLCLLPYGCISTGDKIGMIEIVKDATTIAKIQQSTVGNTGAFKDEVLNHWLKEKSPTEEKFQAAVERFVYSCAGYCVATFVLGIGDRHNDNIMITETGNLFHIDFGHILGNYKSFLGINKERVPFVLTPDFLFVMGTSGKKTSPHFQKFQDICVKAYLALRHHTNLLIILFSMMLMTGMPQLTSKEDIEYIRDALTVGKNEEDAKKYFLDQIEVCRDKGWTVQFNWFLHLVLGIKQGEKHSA
T3 sequence (P42338 whole entry, looked up): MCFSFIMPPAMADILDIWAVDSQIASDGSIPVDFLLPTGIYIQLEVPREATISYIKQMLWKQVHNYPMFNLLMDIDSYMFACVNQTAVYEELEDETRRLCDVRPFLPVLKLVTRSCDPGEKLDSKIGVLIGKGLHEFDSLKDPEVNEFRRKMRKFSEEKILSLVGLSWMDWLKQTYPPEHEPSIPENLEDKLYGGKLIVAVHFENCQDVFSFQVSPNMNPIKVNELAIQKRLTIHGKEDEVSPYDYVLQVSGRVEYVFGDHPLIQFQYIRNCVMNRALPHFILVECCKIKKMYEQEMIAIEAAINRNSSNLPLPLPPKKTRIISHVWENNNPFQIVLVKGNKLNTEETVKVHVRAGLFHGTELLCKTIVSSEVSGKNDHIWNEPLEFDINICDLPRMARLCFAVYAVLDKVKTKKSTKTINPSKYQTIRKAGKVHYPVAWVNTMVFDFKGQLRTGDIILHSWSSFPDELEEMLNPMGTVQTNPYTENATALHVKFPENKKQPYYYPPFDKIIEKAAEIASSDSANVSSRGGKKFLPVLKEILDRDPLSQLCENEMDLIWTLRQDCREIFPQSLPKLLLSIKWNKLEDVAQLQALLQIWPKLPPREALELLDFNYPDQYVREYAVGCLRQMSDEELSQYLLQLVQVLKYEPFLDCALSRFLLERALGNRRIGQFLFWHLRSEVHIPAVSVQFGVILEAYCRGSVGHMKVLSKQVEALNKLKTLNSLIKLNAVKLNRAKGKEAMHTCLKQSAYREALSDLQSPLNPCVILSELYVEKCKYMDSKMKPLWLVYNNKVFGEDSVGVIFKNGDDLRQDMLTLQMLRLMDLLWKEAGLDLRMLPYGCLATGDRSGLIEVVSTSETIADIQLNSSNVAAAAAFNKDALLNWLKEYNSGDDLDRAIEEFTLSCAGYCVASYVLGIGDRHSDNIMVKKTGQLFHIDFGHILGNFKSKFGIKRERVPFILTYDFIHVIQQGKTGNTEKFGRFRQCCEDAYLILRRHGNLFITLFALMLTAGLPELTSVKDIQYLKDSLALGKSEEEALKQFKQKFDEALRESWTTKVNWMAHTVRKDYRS
T1 sequence (O00329 whole entry, looked up): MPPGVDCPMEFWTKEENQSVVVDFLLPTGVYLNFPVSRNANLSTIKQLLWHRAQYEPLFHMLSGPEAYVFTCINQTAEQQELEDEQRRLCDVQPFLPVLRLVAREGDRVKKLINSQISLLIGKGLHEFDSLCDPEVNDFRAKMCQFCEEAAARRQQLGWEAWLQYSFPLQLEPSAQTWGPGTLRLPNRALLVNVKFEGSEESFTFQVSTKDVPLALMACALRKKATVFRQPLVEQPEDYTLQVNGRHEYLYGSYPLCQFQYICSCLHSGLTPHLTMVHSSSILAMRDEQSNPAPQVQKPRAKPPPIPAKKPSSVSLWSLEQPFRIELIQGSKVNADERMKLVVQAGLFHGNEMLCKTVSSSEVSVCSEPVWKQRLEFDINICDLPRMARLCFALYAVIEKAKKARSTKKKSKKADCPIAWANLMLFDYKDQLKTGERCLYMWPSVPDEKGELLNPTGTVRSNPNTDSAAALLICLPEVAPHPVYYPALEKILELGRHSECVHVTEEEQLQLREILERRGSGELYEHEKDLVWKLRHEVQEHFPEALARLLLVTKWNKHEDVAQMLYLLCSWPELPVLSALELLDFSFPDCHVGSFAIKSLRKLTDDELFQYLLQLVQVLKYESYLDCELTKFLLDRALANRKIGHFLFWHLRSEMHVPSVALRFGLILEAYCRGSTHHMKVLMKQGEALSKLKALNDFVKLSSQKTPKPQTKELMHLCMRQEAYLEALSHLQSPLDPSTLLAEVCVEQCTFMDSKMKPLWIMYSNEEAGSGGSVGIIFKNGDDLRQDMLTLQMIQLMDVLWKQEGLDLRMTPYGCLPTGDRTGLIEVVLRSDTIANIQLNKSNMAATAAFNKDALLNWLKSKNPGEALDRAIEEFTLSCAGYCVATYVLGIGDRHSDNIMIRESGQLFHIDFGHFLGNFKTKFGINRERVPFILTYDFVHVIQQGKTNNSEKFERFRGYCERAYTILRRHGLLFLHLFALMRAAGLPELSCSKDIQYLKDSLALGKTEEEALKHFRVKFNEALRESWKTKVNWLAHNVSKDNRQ

Take `CC(C)(C)N1CCN(Cc2cc3nc(-n4c(C5CC5)nc5ccccc54)cc(N4CCOCC4)n3n2)CC1` [Compound 8, 1-{2-[(4-tert-butylpiperazin-1-yl)methyl]-7-(morpholin-4-yl)pyrazolo[1,5-a]pyrimidin-5-yl}-2-cyclopropyl-1H-benzimidazole]: the half-maximal inhibitory concentration (IC50) (as a rule, the concentration needed to halve the response being measured) in test [1] is 1070 nM. For the same compound, in test [2], half-maximal inhibition (IC50) was put at 271000 nM and the “Fold Selectivity γ/δ” value is reported as 253. Further, in test [3], 259000 nM corresponded to half-maximal inhibition (IC50) and the “Fold Selectivity β/δ” value was determined as 242. In addition, in test [4], half-maximal inhibition (IC50) required 82500 nM and the “Fold Selectivity α/δ” value came to 77.
`CC(C)(O)C1CCN(Cc2cc3nc(-n4c(C(F)F)nc5ccccc54)cc(N4CCOCC4)n3n2)CC1` [Compound 11, 2-[1-({5-[2-(difluoromethyl)-1H-benzimidazol-1-yl]-7-(morpholin-4-yl)pyrazolo[1,5-a]pyrimidin-2-yl}methyl)piperidin-4-yl]propan-2-ol]: the IC50 worked out at 52 nM in test [1], 6350 nM in test [2] and 1730 nM in test [4]. Besides, the “Fold Selectivity γ/δ” value in test [2] is given as 122. Moreover, in test [4], the “Fold Selectivity α/δ” value amounted to 33.
For the compound `Cc1nc2ccccc2n1-c1cc(N2CCOCC2)n2nc(CN3CCC(C(C)(C)O)CC3)cc2n1` [Compound 12, 2-(1-{[5-(2-methyl-1H-1,3-benzimidazol-1-yl)-7-(morpholin-4-yl)pyrazolo[1,5-a]pyrimidin-2-yl]methyl}piperidin-4-yl)propan-2-ol], inhibition in test [1] was half-maximal at 878 nM (IC50). In addition, in test [2], the IC50 came out at 119000 nM and the “Fold Selectivity γ/δ” value is recorded as 136. Also, in test [3], it took 195000 nM to reach half-maximal inhibition (IC50) and the “Fold Selectivity β/δ” value is given as 222. In test [4], the IC50 was 30500 nM and the “Fold Selectivity α/δ” value is reported as 35.
As to `CC(=O)NC1CCN(Cc2cc3nc(-n4c(C(F)F)nc5ccccc54)cc(N4CCOCC4)n3n2)CC1` [Compound 35, N-[1-({5-[2-(difluoromethyl)-1H-1,3-benzimidazol-1-yl]-7-(morpholin-4-yl)pyrazolo[1,5-a]pyrimidin-2-yl}methyl)piperidin-4-yl]acetamide], the IC50 in test [1] came to 445 nM; in test [2], 1500 nM. Further, the “Fold Selectivity γ/δ” value in test [2] worked out at 3.4.
`O=C(c1cc2nc(-n3c(C(F)F)nc4ccccc43)cc(N3CCOCC3)n2n1)N1CCOCC1` [Compound 46, 2-(difluoromethyl)-1-[7-(morpholin-4-yl)-2-(morpholine-4-carbonyl)pyrazolo[1,5-a]pyrimidin-5-yl]-1H-1,3-benzimidazole] yielded an IC50 in test [1] of 226 nM. For the same compound, in test [2], the IC50 turned out to be 8540 nM and the “Fold Selectivity γ/δ” value is reported as 38.
The like results for `O=C(c1cc2nc(-n3c(C(F)F)nc4ccccc43)cc(N3CCOCC3)n2n1)N1CCC(N2CCOCC2)CC1` [Compound 52, 2-(difluoromethyl)-1-[7-(morpholin-4-yl)-2-[4-(morpholin-4-yl)piperidine-1-carbonyl]pyrazolo[1,5-a]pyrimidin-5-yl]-1H-1,3-benzimidazole] were, in that order, 92 nM, 5950 nM and 65.
The like results for `NC(=O)C1CCN(Cc2cc3nc(-n4c(C(F)F)nc5ccccc54)cc(N4CCOCC4)n3n2)CC1` [Compound 29, 1-({5-[2-(difluoromethyl)-1H-1,3-benzimidazol-1-yl]-7-(morpholin-4-yl)pyrazolo[1,5-a]pyrimidin-2-yl}methyl)piperidine-4-carboxamide] were, in that order, 240 nM, 1860 nM and 7.7.
For `CNC(=O)CN1CCN(Cc2cc3nc(-n4c(C(F)F)nc5ccccc54)cc(N4CCOCC4)n3n2)CC1` [Compound 36, 2-[4-({5-[2-(difluoromethyl)-1H-1,3-benzimidazol-1-yl]-7-(morpholin-4-yl)pyrazolo[1,5-a]pyrimidin-2-yl}methyl)piperazin-1-yl]-N-methylacetamide] the same measures were 63 nM, 1250 nM and 20.
`CC(C)(C)N1CCN(Cc2cc3nc(-n4c(C(F)(F)F)nc5ccccc54)cc(N4CCOCC4)n3n2)CC1` [Compound 9, 1-{2-[(4-tert-butylpiperazin-1-yl)methyl]-7-(morpholin-4-yl)pyrazolo[1,5-a]pyrimidin-5-yl}-2-(trifluoromethyl)-1H-benzimidazole]: the half-inhibitory concentration (IC50) in test [1] came to 907 nM. Further, in test [2], the IC50 was 135000 nM and the “Fold Selectivity γ/δ” value is listed as 149.
For `CC(C)N1CCN(C(=O)c2cc3nc(-n4c(C(F)F)nc5ccccc54)cc(N4CCOCC4)n3n2)CC1` [Compound 57, 2-(difluoromethyl)-1-[7-(morpholin-4-yl)-2-[4-(propan-2-yl)piperazine-1-carbonyl]pyrazolo[1,5-a]pyrimidin-5-yl]-1H-1,3-benzimidazole], the figures for the IC50 in test [1] and in test [2] were 271 nM and 25500 nM, respectively.
`FC(F)c1nc2ccccc2n1-c1cc(N2CCOCC2)n2nc(CNC3CCOCC3)cc2n1` [Compound 27, N-({5-[2-(difluoromethyl)-1H-1,3-benzimidazol-1-yl]-7-(morpholin-4-yl)pyrazolo[1,5-a]pyrimidin-2-yl}methyl)oxan-4-amine]: the concentration for half-maximal inhibition (IC50) in test [1] was determined as 1810 nM. Besides, in test [2], the midpoint of inhibition, the IC50, lay at 20500 nM and the “Fold Selectivity γ/δ” value is given as 11.
For `NC(=O)C1CCN(C(=O)c2cc3nc(-n4c(C(F)F)nc5ccccc54)cc(N4CCOCC4)n3n2)CC1` [Compound 48, 1-{5-[2-(difluoromethyl)-1H-1,3-benzimidazol-1-yl]-7-(morpholin-4-yl)pyrazolo[1,5-a]pyrimidine-2-carbonyl}piperidine-4-carboxamide], the IC50 in test [1] is 314 nM; in test [2], 2790 nM. Besides, the “Fold Selectivity γ/δ” value in test [2] is recorded as 9.
For `CC(=O)NC1CCN(C(=O)c2cc3nc(-n4c(C(F)F)nc5ccccc54)cc(N4CCOCC4)n3n2)CC1` [Compound 54, N-(1-{5-[2-(difluoromethyl)-1H-1,3-benzimidazol-1-yl]-7-(morpholin-4-yl)pyrazolo[1,5-a]pyrimidine-2-carbonyl}piperidin-4-yl)acetamide] the same measures were 141 nM, 1690 nM and 12.
In the case of `C[C@H]1COCCN1Cc1cc2nc(-n3c(C(F)F)nc4ccccc43)cc(N3CCOCC3)n2n1` [Compound 24, 2-(difluoromethyl)-1-(2-{[(3S)-3-methylmorpholin-4-yl]methyl}-7-(morpholin-4-yl)pyrazolo[1,5-a]pyrimidin-5-yl)-1H-1,3-benzimidazole], in test [1], 254 nM corresponded to half-maximal inhibition (IC50). In test [2], the IC50 was found to be 588 nM and the “Fold Selectivity γ/δ” value turned out to be 2.3.
The like results for `CNC(=O)CN1CCN(C(=O)c2cc3nc(-n4c(C(F)F)nc5ccccc54)cc(N4CCOCC4)n3n2)CC1` [Compound 55, 2-(4-{5-[2-(difluoromethyl)-1H-1,3-benzimidazol-1-yl]-7-(morpholin-4-yl)pyrazolo[1,5-a]pyrimidine-2-carbonyl}piperazin-1-yl)-N-methylacetamide] were, in that order, 82 nM, 2170 nM and 26.
The like results for `FC(F)c1nc2ccccc2n1-c1cc(N2CCOCC2)n2nc(CN3CCC(F)(F)CC3)cc2n1` [Compound 28, 2-(difluoromethyl)-1-{2-[(4,4-difluoropiperidin-1-yl)methyl]-7-(morpholin-4-yl)pyrazolo[1,5-a]pyrimidin-5-yl}-1H-1,3-benzimidazole] were, in that order, 443 nM, 1710 nM and 3.9.
Take `CC(C)N1CCN(Cc2cc3nc(-n4c(C(F)F)nc5ccccc54)cc(N4CCOCC4)n3n2)CC1` [Compound 38, 2-(difluoromethyl)-1-[7-(morpholin-4-yl)-2-{[4-(propan-2-yl)piperazin-1-yl]methyl}pyrazolo[1,5-a]pyrimidin-5-yl]-1H-1,3-benzimidazole]: in test [1], 38 nM corresponded to half-maximal inhibition (IC50). In test [2], the IC50 was 13300 nM and the “Fold Selectivity γ/δ” value is recorded as 351.
For `O[C@@H]1CCN(Cc2cc3nc(-n4c(C(F)F)nc5ccccc54)cc(N4CCOCC4)n3n2)C1` [Compound 22, (3R)-1-({5-[2-(difluoromethyl)-1H-1,3-benzimidazol-1-yl]-7-(morpholin-4-yl)pyrazolo[1,5-a]pyrimidin-2-yl}methyl)pyrrolidin-3-ol] the same measures were 979 nM, 8420 nM and 8.6.
In turn, `CCOC(=O)C1CCCN(Cc2cc3nc(-n4c(C(F)F)nc5ccccc54)cc(N4CCOCC4)n3n2)C1` (stereo not drawn) [Compound 26, 1-({5-[2-(difluoromethyl)-1H-1,3-benzodiazol-1-yl]-7-(morpholin-4-yl)pyrazolo[1,5-a]pyrimidin-2-yl}methyl)piperidine-3-carboxylate] displayed an IC50 in test [1] of 203 nM. Moreover, in test [2], the IC50 worked out at 4280 nM and the “Fold Selectivity γ/δ” value was 21.
`CC(C)(C)N1CCN(C(=O)c2cc3nc(-n4c(C(F)F)nc5ccccc54)cc(N4CCOCC4)n3n2)CC1` [Compound 40, 1-[2-(4-tert-butylpiperazine-1-carbonyl)-7-(morpholin-4-yl)pyrazolo[1,5-a]pyrimidin-5-yl]-2-(difluoromethyl)-1H-1,3-benzimidazole] had an IC50 in test [1] of 84 nM. Besides, in test [2], the IC50 was determined as 48800 nM and the “Fold Selectivity γ/δ” value was 581.

The values above are taken from paper PMC9415947 (Pharmaceuticals, 2022).
